The nature of one data set: clinical. The following applies: human, plasma; for half-life: intravenous.
Another data set is described as follows: Phase I dose escalation. It counts as in vivo, human.
The conditions of data set [1]: cited from earlier work.
For data set [2] the following is noted: cited from earlier work. This is another data set of the same source.
Data set [3] can be described thus: Bortezomib plasma pharmacokinetics, non-compartmental, LC-MS/MS.
For data set [4] the following is noted: co-administration of ketoconazole; cited from earlier work.
Data set [5] in a line: Serum anticonvulsant levels in group A patients. The note with it: all 3 patients in group A; at PK sampling on days 2 and 9 of cycle 1. It counts as in vivo, human.
[6] abbreviates: patients not taking concomitant HEIAs (group B).
Setting [7] is: Day 2, bortezomib 1.0 mg/m^2, group A (taking HEIAs), N 1.
Setting [8] is: Day 2, bortezomib 1.0 mg/m^2, group B (not taking HEIAs), N 13, median (range).
Where [9] appears, read: Day 2, bortezomib 1.3 mg/m^2, group A (taking HEIAs), N 1.
Setting [10] is: Day 2, bortezomib 1.3 mg/m^2, group B (not taking HEIAs), N 6, median (range).
[11] abbreviates: Day 2, bortezomib 1.5 mg/m^2, group A (taking HEIAs), N 1.
[12] abbreviates: Day 2, bortezomib 1.5 mg/m^2, group B (not taking HEIAs), N 1.
The mark [13] stands for this setting: Day 9, bortezomib 1.0 mg/m^2, group A (taking HEIAs), N 1.
[14] abbreviates: Day 9, bortezomib 1.0 mg/m^2, group B (not taking HEIAs), N 13, median (range).
[15] abbreviates: Day 9, bortezomib 1.3 mg/m^2, group A (taking HEIAs), N 1.
Where [16] appears, read: Day 9, bortezomib 1.3 mg/m^2, group B (not taking HEIAs), N 6, median (range).

Read-outs that look alike come from different tables or passages of the source.

Here are results for three compounds from publication PMC3506384 (Cancer chemotherapy and pharmacology, 2011).

Regarding `CC(C)C[C@H](NC(=O)[C@H](Cc1ccccc1)NC(=O)c1cnccn1)B(O)O` [bortezomib], the half-life in the data set “clinical” (1 mg/m2) is 11.3 h; in “clinical” (1.3 mg/m2) it was 12.4 h; in “clinical” (1.5 mg/m2) it was 6.4 h. In “clinical” (iv, 1 mg/m^2), this compound showed a Cmax of 65.5 ng/mL. Besides, the “MTD of bortezomib in combination with temozolomide” value in “Phase I dose escalation” (patients not taking HEIAs, days 2, 5, 9, 12 of a 28-day cycle) stood at 1.3 mg/m^2; in the data set “Phase I dose escalation” (setting [6]), 1.3 mg/m^2/dose. Further, the “recommended dose for phase 2 studies, bortezomib in the combination” value in “Phase I dose escalation” (patients not taking HEIAs, days 2, 5, 9 and 12, every 28 days) is 1.3 mg/m^2. Further, the “individual MTD (single agent)” value in data set [1] (bortezomib alone) is on record as 1.6 mg/m^2. Further, the “MTD of single agent bortezomib” value in data set [2] (recurrent malignant glioma patients not taking HEIAs) is on record as 1.7 mg/m^2; in data set [2] (recurrent malignant glioma patients receiving concurrent HEIAs), 2.5 mg/m^2. Further, the “AUC 0–∞” value in data set [3] (setting [7]) is 20.8 µg·h/L; in data set [3] (setting [8]) it was 33.6 (21–106) ug/l × h; in data set [3] (setting [9]), 40.4 µg·h/L; in data set [3] (setting [10]) it was 56.1 (34–97) ug/l × h; in data set [3] (setting [11]), 30.6 µg·h/L; in data set [3] (setting [12]) it was 137.4 µg·h/L. Also, the “AUC 0–∞” value in data set [3] (setting [13]) is 30.7 µg·h/L; in data set [3] (setting [14]), 86.8 (32–216) ug/l × h; in data set [3] (setting [15]), 72.4 µg·h/L; in data set [3] (setting [16]), 120.0 (78–206) ug/l × h. Besides, the CLsys in data set [3] (setting [7]) was 115.7 L/h; in data set [3] (setting [8]) it was 46.6 (17–90) l/h; in data set [3] (setting [9]), 64.4 L/h; in data set [3] (setting [10]) it was 44.0 (21–81) l/h; in data set [3] (setting [11]), 94.8 L/h; in data set [3] (setting [12]), 16.0 L/h. For the same compound, the CLsys is 78.1 L/h in data set [3] (setting [13]), 20.7 (9–59) l/h in data set [3] (setting [14]), 35.9 L/h in data set [3] (setting [15]) and 21.2 (10–33) l/h in data set [3] (setting [16]). The “Elimination T1/2” value in data set [3] (setting [8]) is 12.7 (2–21) h; in data set [3] (setting [10]), 18.8 (13–26) h; in data set [3] (setting [13]), 15.5 h; in data set [3] (setting [15]), 11.1 h; in data set [3] (setting [16]), 18.9 (12–41) h. The “CLsys on day 9 as percent of the CLsys on day 2” value in data set [3] (median percent change, P < 0.01, paired Wilcoxon test, all patients with PK) is on record as 51%. The “rapid initial decline of plasma concentration” value in data set [3] (within the first few hours after the dose, both groups) turned out to be 100 fold. Besides, the “mean increase in systemic exposure of bortezomib with ketoconazole” value in data set [4] is 35%.
In the case of `O=C1NC(=O)C(c2ccccc2)(c2ccccc2)N1` [phenytoin], the serum phenytoin levels result in data set [5] is listed as “within the therapeutic range”.
On to `Cn1nnc2c(C(N)=O)ncn2c1=O` [temozolomide], for which, in the data set “Phase I dose escalation” (patients not taking HEIAs, days 1–5, every 28 days), the “recommended dose for phase 2 studies, temozolomide in the combination” value is 200 mg/m^2. The “MTD of temozolomide in combination with bortezomib” value is on record as 200 mg/m^2 in the data set “Phase I dose escalation” (patients not taking HEIAs, days 1–5 of a 28-day cycle) and 200 mg/m^2/dose in the data set “Phase I dose escalation” (setting [6]). In data set [1] (temozolomide alone), the “individual MTD (single agent)” value is reported as 200 mg/m^2.
